Laboratory results reported in publication PMC2649378 (European Journal of Pharmacology, 2008).
Several values for one entry are separate records, joined by “and”; a condition that tells them apart may be missing. Equal entries are not always repeated. Where two headings read alike, the source gives them in different places.

How the values were obtained:
5-HT3A receptors [1] = molecular target: T1, 5-HT3A receptors (Mus musculus, UniProt P23979); assay: [3H]granisetron binding to membranes of transfected HEK 293 cells, 5-HT3A receptors; conditions: for Ki relative to the Ki for 5-HT: 5-HT3A receptors, fold greater than 5-HT; for Ki: WT 5-HT3A receptors, HEK 293 membranes, 0.5 nM [3H]granisetron, 4 °C
T1 construct: expressed in transfected cells; host or cells: Xenopus laevis oocytes injected with cRNA (pGEMHE)
T1 sequence (P23979 24-489): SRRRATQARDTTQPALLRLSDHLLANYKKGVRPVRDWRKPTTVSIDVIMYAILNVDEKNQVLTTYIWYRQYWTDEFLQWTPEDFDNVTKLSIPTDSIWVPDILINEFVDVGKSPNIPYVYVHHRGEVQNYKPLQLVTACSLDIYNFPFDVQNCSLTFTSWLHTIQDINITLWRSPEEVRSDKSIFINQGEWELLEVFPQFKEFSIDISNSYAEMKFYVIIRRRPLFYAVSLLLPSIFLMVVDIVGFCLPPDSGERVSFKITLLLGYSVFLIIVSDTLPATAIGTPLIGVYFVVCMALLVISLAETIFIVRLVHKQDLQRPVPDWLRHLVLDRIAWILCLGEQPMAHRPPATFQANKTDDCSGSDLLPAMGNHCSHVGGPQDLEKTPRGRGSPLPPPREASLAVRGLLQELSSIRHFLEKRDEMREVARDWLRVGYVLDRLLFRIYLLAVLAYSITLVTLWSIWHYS
Procedure: (§1) Mouse 5-HT3A (accession number: AY605711) or 5-HT3B (accession number: NM_020274, kindly provided by Ewen Kirkness) subunit cDNAs were cloned into pGEMHE for oocyte expression ([Liman et al., 1992]). cRNA was in vitro transcribed from linearised (NheI) plasmid cDNA template using the mMessage mMachine T7 kit (Ambion, Austin, Texas, USA). Stage V and VI oocytes were injected with 50 ng–100 ng cRNA, and recorded from 1–4 days post-injection. For expression in HEK 293 cells, 5-HT3 receptor subunit cDNAs were cloned into pcDNA3.1 (Invitrogen Ltd., Paisley, UK.). Mutagenesis reactions were performed using the Kunkel method and confirmed by DNA sequencing. Cells were transfected using calcium phosphate precipitation at 80–90% confluency ([Jordan et al., 1996]). Following transfection cells were incubated for 3–4 days before assay.
(§2) This was undertaken in HEK 293 cells which provide an established and robust method of studying ligand binding. Methods were as previously described ([Lummis et al., 1993]), with minor modifications. Briefly, transfected HEK 293 cells were washed twice with phosphate buffered saline (PBS) at room temperature and scraped into 1 ml of ice-cold HEPES buffer (10 mM, pH 7.4) containing the following proteinase inhibitors (PI): 1 mM EDTA, 50 μg ml^− 1 soybean trypsin inhibitor, 50 μg/ml bacitracin and 0.1 mM phenylmethylsulphonyl fluoride. […] Competition binding was performed using ligand concentrations from 0.1 μM–10 mM. Reactions were incubated for at least 1 h at 4 °C and terminated by vacuum filtration using a Brandel cell harvester onto GF/B filters pre-soaked in 0.3% polyethyleneimine. Radioactivity was determined by scintillation counting using a Beckman LS6000SC (Fullerton, California, USA). Competition binding data were analyzed by iterative curve fitting (GraphPad Prism v3.02, GraphPad Software, San Diego, California, USA), according to the equation: y=Bmin+Bmax−Bmin/1+10^[L]−logIC50 where Bmin is the lowest total binding, Bmax is the maximum specific binding at equilibrium, [L] is the concentration of competing ligand and IC50 is the concentration of competing ligand that blocks half of the specific bound radioligand. Ki values were estimated from IC50 values using the Cheng–Prusoff equation: Ki=IC50/1+[L]/Kd
(§3) where Ki is the equilibrium dissociation constant for binding of the unlabeled antagonist, [L] is the concentration of radioligand and Kd is the equilibrium dissociation constant of the radioligand.

5-HT3AB receptors [2] = molecular target: T2, 5-HT3AB receptors (Mus musculus, UniProt P23979+Q9JHJ5); assay: [3H]granisetron binding to membranes of transfected HEK 293 cells, 5-HT3AB receptors
T2 construct: expressed in transfected cells; host or cells: Xenopus laevis oocytes injected with cRNA (pGEMHE)
T2 sequence (P23979 24-489): T1 sequence (P23979 24-489)
T2 sequence (Q9JHJ5 22-437): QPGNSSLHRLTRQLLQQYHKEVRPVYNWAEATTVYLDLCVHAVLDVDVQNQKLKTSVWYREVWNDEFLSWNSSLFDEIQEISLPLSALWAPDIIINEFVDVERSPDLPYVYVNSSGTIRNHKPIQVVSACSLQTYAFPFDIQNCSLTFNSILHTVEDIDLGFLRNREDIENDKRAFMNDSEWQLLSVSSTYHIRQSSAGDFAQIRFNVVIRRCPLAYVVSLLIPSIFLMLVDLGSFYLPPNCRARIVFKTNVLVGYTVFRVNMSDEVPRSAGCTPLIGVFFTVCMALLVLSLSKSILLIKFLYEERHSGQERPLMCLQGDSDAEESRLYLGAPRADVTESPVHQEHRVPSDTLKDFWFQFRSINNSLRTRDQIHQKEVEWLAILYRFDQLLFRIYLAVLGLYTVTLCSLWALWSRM
Procedure: as §1, §2, §3

5-HT3A receptors [3] = molecular target: T1, 5-HT3A receptors; assay: Agonist-induced currents in Xenopus oocytes expressing 5-HT3A receptors (OpusXpress electrophysiology); assay type: cell-based; conditions: for agonist character: 5-HT3A receptors; for Relative efficacy Rmax = Imax drug / Imax 5-HT: maximal concentration; for EC50: holding potential -60 mV; for EC50 relative to Ki: EC50 fold higher than Ki; for Rmax, approximate summary value: discussion, stated for 5-HT3 receptors (5-HT3A and 5-HT3AB) without distinction
Procedure: (§4) Harvested stage V–VI Xenopus oocytes were washed in six changes of ND96 (96 mM NaCl, 2 mM KCl, 1 mM MgCl2, 1.8 mM CaCl2, 5 mM HEPES, pH 7.5), de-folliculated in 1.5 mg ml^− 1 collagenase Type 1A for approximately 2 h. Enzyme treatment was terminated by washing in six changes of ND96 and oocytes were stored in ND96 containing 2.5 mM sodium pyruvate, […] and 0.7 mM theophylline.
as §1
(§5) Agonist-induced currents were recorded at 22–25 °C from individual oocytes using the OpusXpress system (Molecular Devices Axon Instruments, Union City, CA). […] The holding potential was − 60 mV.

5-HT3A receptors [4] = molecular target: T1, 5-HT3A receptors; conditions: discussion; compound not tested in this paper; no reference given; cited from earlier work
5-HT3AB receptors [5] = molecular target: T2, 5-HT3AB receptors; assay: Agonist-induced currents in Xenopus oocytes expressing 5-HT3AB receptors (OpusXpress electrophysiology); assay type: cell-based; conditions: for agonist character: 5-HT3AB receptors; for nH (Hill slope) / EC50 / Relative efficacy Rmax = Imax drug / Imax 5-HT: 5-HT3AB receptors in Xenopus oocytes; for EC50: holding potential -60 mV; for Relative efficacy Rmax = Imax drug / Imax 5-HT: maximal concentration
Procedure: as §4, §1, §5

[6] = Ki, displacement of [3H]granisetron binding
[7] = 5-HT3A receptors in Xenopus oocytes
[8] = EC50, 5-HT3A receptors in Xenopus oocytes
[9] = read-out: Ki, displacement of [3H]granisetron binding
[10] = 5-HT3AB receptors, HEK 293 membranes, 0.5 nM [3H]granisetron, 4 °C, read-out: Ki, displacement of [3H]granisetron binding

SMILES: NCCc1c[nH]c2ccc(Cl)cc12 [5-ClT, 5-chlorotryptamine]
- Ki relative to the Ki for 5-HT (5-HT3A receptors [1]): ~10 fold
- Ki (5-HT3A receptors [1]; [6]): 2.7 ± 0.7 µM
- Ki (5-HT3AB receptors [2]): 3.1 ± 1.1 µM
- agonist character (5-HT3A receptors [3]): very weak partial agonist
- Relative efficacy Rmax = Imax drug / Imax 5-HT (5-HT3A receptors [3]; [7]): 0.0037
- EC50 (5-HT3A receptors [3]; [8]): 8.1 µM and 8 µM
- EC50 relative to Ki (5-HT3A receptors [3]): less than 5 fold

SMILES: Cc1[nH]c2ccc(O)cc2c1CCN [2-methyl-5-HT]
- Rmax, approximate value (5-HT3A receptors [4]): ~0.2

SMILES: N=C(N)NC(=N)Nc1cccc(Cl)c1 [mCPBG, m-chlorophenylbiguanide]
- Ki (5-HT3A receptors [1]; [9]): 0.01 ± 0.003 µM
- Ki (5-HT3AB receptors [2]; [10]): 0.012 ± 0.004 µM
- agonist character (5-HT3AB receptors [5]): full agonist
- nH (Hill slope) (5-HT3AB receptors [5]): 1.6 and 1.6 ± 0.4
- EC50 (5-HT3AB receptors [5]; read-out: EC50): 1.1 µM
- Relative efficacy Rmax = Imax drug / Imax 5-HT (5-HT3AB receptors [5]): 0.92 ± 0.09
- agonist character (5-HT3A receptors [3]): partial agonist
- nH (Hill slope) (5-HT3A receptors [3]; [7]): 2.3 and 2.3 ± 0.4
- EC50 (5-HT3A receptors [3]; 5-HT3A receptors in Xenopus oocytes, read-out: EC50): 0.5 µM
- Relative efficacy Rmax = Imax drug / Imax 5-HT (5-HT3A receptors [3]; [7]): 0.74 ± 0.07
- Rmax, approximate summary value (5-HT3A receptors [3]): ~0.8

SMILES: NCCc1c[nH]c2ccccc12 [tryptamine]
- Ki relative to the Ki for 5-HT (5-HT3A receptors [1]): ~50 fold
- Ki (5-HT3A receptors [1]; [9]): 4.8 ± 0.9 µM
- Ki (5-HT3AB receptors [2]; [10]): 15.5 ± 3.5 µM
- agonist character (5-HT3AB receptors [5]): partial agonist
- nH (Hill slope) (5-HT3AB receptors [5]): 1.8 and 1.8 ± 0.5
- EC50 (5-HT3AB receptors [5]; mean ± SEM, read-out: pEC50 (converted)): 60.3 µM
- EC50 (5-HT3AB receptors [5]; read-out: EC50): 61 µM
- Relative efficacy Rmax = Imax drug / Imax 5-HT (5-HT3AB receptors [5]): 0.14 ± 0.02
- agonist character (5-HT3A receptors [3]): partial agonist
- nH (Hill slope) (5-HT3A receptors [3]; [7]): 2.5 and 2.5 ± 0.5
- EC50 (5-HT3A receptors [3]; 5-HT3A receptors in Xenopus oocytes, mean ± SEM, read-out: pEC50 (converted)): 123 µM
- Relative efficacy Rmax = Imax drug / Imax 5-HT (5-HT3A receptors [3]; [7]): 0.15
- Relative efficacy Rmax = Imax drug / Imax 5-HT (5-HT3A receptors [3]; 5-HT3A receptors in Xenopus oocytes, listed as Tryptamine): 0.15 ± 0.06
- EC50 relative to both 5-HT and 5-FT (5-HT3A receptors [3]; EC50 fold higher than 5-HT and 5-FT, both receptor types): 10–100 fold
- Rmax, approximate summary value (5-HT3A receptors [3]): ~0.15
- potency (EC50) relative to 5-HT (5-HT3A receptors [3]; fold less potent / EC50 higher than 5-HT, stated for 5-HT3A and 5-HT3AB receptors together): ~100 fold

SMILES: NCCc1c[nH]c2ccc(O)cc12 [5-HT]
- nH (Hill slope) (5-HT3AB receptors [5]): 1.4 and 1.4 ± 0.4

SMILES: COc1ccc2[nH]cc(CCN)c2c1 [5-MeOT, 5-methoxytryptamine]
- Ki relative to the Ki for 5-HT (5-HT3A receptors [1]): ~300 fold
- Ki (5-HT3A receptors [1]; [6]): 34.9 ± 3 µM
- Ki (5-HT3AB receptors [2]): 21.7 ± 2.1 µM
- activation of 5-HT3 receptors (5-HT3A receptors [3]; concentrations up to 10 mM, examined in 5-HT3A receptors): unable to activate

SMILES: Cc1ccc2[nH]cc(CCN)c2c1 [5-MeT, 5-methyltryptamine]
- Ki relative to the Ki for 5-HT (5-HT3A receptors [1]): ~100 fold
- Ki (5-HT3AB receptors [2]): 7.7 ± 1.1 µM
- agonist character (5-HT3A receptors [3]): very weak partial agonist
- Relative efficacy Rmax = Imax drug / Imax 5-HT (5-HT3A receptors [3]; [7]): 0.0023
- EC50 (5-HT3A receptors [3]; [8]): 60 ± 3 µM
- EC50 relative to Ki (5-HT3A receptors [3]): less than 5 fold
